Reference: US9211485B2, “Method for producing crystalline active ingredient particles” (Jesalis Pharma GmbH, priority 2010, dated 2015)

How the values were obtained:
Assay type in all cases: physicochemical
[1] = Particle size distribution by laser diffraction, wet measurement (Malvern Mastersizer E); details: for d50 / d90 / d10: dried product, laser diffraction wet measurement; for d50: average particle size; for d10: vol.-%; for span: span=(d90−d10)/d50
Experimental: The particle size and the particle size distribution (grain-size distribution) are determined with the help of a customary laser diffraction in a wet measurement which delivers a distribution curve of the particle sizes (Malvern System, Mastersizer E, wet measurement in the cuvette). dx means that x volume percent (vol.-%) of the particles have a diameter which is smaller than the given value. With a d50 value of 1 μm 50 vol.-% of the particles thus have a diameter of less than 1 μm (micrometer). The d50 value is a measure of the average (volume average) particle diameter and is therefore also called average particle diameter. With a d10 of 15 μm and a d90 of 50 μm 10 vol.-% of the particles have a diameter of less than 15 μm and 90 vol.-% of the particles have a diameter of less than 50 μm.
Sample preparation for wet measurement of the particle size and particle size distribution: 12.5 mg sample is dispersed in 25 ml aqueous surfactant solution (0.1% Tween 80 in water, saturated with active ingredient and filtered over a 0.2 μm filter) by means of ultrasound sonotrode (Hielscher, d=7 mm, 30% output) for 4 min. The thus-obtained suspension is added dropwise, accompanied by stirring, to the measuring vessel which contains filtered surfactant solution, until the obscuration (clouding) reaches 10% and the particle size distribution is determined by the above-described laser diffraction. An average value is determined from five measurements.
An advantage of the method according to embodiments of the invention is the generation of a very narrow particle size distribution. Additionally, largely agglomerate-free particles are obtained. This is achieved by the synchronous counterrotation of destructive grinding and ultrasound processes on the one hand and constructive crystal growth on the other hand. In the region of coarse grain sizes and agglomerates, above all the disintegration effect (grinding process and ultrasound) acts primarily in the direction of a reduction, and in the fine-grain region the crystal growth acts in the direction of an increase in the particle size. Thus, very narrow particle size distributions are achieved. The width of a particle size distribution (span) is defined as follows: span=(d90−d10)/d50.

[2] = Agglomeration factor: d90 (Ultra Turrax stirrer) / d90 (ultrasound sonotrode); details: d90(agglomerated particles)/d90(non-agglomerated particles)
Description: The degree of agglomeration of the crystallized active ingredient particles is described by the agglomeration factor (AGF). This is defined by the quotient of the diameter of the agglomerated particles and of the diameter of the non-agglomerated particles. This method is most informative for agglomeration when comparing the d90 values. The agglomeration factor within the meaning of the present invention is therefore defined as follows: Agglomeration factor=d90(agglomerated particles)/d90(non-agglomerated particles)
These two d90 values are determined by different energy input into the sample to be tested.
With a high input of energy, existing agglomerates decompose and the following particle size measurement delivers the d90 of the non-agglomerated particles. […]
With a low energy input on the other hand agglomerates are largely spared and the following particle size measurement delivers the d90(agglomerated particles). […] The thus-obtained suspension is added dropwise accompanied by stirring to the measuring vessel which contains filtered surfactant solution, until the obscuration reaches 10% and the particle size distribution is determined by the above-described laser diffraction. An average value is determined from five measurements. […]

[3] = Crystallinity by X-ray powder diffractometry (XRPD) relative to a reference material; details: relative to reference sample
Experimental: The crystallinity is determined by means of X-ray powder diffractometry (XRPD) (apparatus: Siemens D8, fixed sample position). After background correction the integral intensities in the X-ray diffractogram are compared with those of a reference material. This reference material can for example be a conventional precipitation product or a product according to a different production method with known crystallinity and granulation. Thus the crystallinity is a relative value which characterizes the degree of order compared with a reference sample. The relationship of the integral reflex intensities of particle sample and reference sample is therefore the quantitative expression of its difference in crystallinity.

Row | Compound | d50 [1] | d90 [1] | d10 [1] | span [1] | AGF (agglomeration factor) [2] | crystallinity [3]
1 | CC(=O)[C@H]1CC[C@H]2[C@@H]3CCC4=CC(=O)CC[C@]4(C)[C@H]3CC[C@]12C [Example 2, progesterone] | 26 μm | 45 μm | 10 μm | 1.3 | 1.1 | 100%
2 | CC(=O)[C@H]1CC[C@H]2[C@@H]3CCC4=CC(=O)CC[C@]4(C)[C@H]3CC[C@]12C [Example 1, progesterone] | 34 μm | 64 μm | 12 μm | 1.5 | 1.3 | 100%
